Results as given in ChEMBL document CHEMBL5244269, “Improving metabolic stability and removing aldehyde oxidase liability in a 5-azaquinazoline series of IRAK4 inhibitors” (Bioorg Med Chem, 2020).

Experiments:
Assay type in all cases: functional
OCI-Ly10 [1] = assay: Growth inhibition of human OCILY10 cells at 0.33 uM incubated for 3 days in presence of 0.033 uM acalabrutinib relative to control; conditions: OCI-Ly10, 72 h, time 3 day, read-out: GI
OCI-Ly10 [2] = assay: Growth inhibition of human OCILY10 cells at 3.3 uM incubated for 3 days in presence of 0.033 uM acalabrutinib relative to control; conditions: OCI-Ly10, 72 h, time 3 day, read-out: GI
OCI-Ly10 [3] = assay: Growth inhibition of human OCILY10 cells at 3.3 uM incubated for 3 days in presence of 0.003 uM acalabrutinib relative to control; conditions: OCI-Ly10, 72 h, time 3 day, read-out: GI
OCI-Ly10 [4] = assay: Growth inhibition of human OCILY10 cells at 0.17 uM incubated for 3 days in presence of 0.17 uM acalabrutinib relative to control; conditions: OCI-Ly10, 72 h, time 3 day, read-out: GI
OCI-Ly10 [5] = assay: Growth inhibition of human OCILY10 cells at 0.17 uM incubated for 3 days in presence of 0.017 uM acalabrutinib relative to control; conditions: OCI-Ly10, 72 h, time 3 day, read-out: GI
OCI-Ly10 [6] = assay: Growth inhibition of human OCILY10 cells at 10 uM incubated for 3 days in presence of 0.003 uM acalabrutinib relative to control; conditions: OCI-Ly10, 72 h, time 3 day, read-out: GI
OCI-Ly10 [7] = assay: Growth inhibition of human OCILY10 cells at 0.33 uM incubated for 3 days in presence of 0.017 uM acalabrutinib relative to control; conditions: OCI-Ly10, 72 h, time 3 day, read-out: GI
SUD4 [8] = assay: Growth inhibition of human SU-DHL-4 cells at 3.3 uM incubated for 3 days in presence of 0.003 uM acalabrutinib relative to control; conditions: SU-DHL-4, 72 h, time 3 day, read-out: GI
SUD4 [9] = assay: Growth inhibition of human SU-DHL-4 cells at 0.17 uM incubated for 3 days in presence of 0.17 uM acalabrutinib relative to control; conditions: SU-DHL-4, 72 h, time 3 day, read-out: GI
SUD4 [10] = assay: Growth inhibition of human SU-DHL-4 cells at 10 uM incubated for 3 days in presence of 0.33 uM acalabrutinib relative to control; conditions: SU-DHL-4, 72 h, time 3 day, read-out: GI
SUD4 [11] = assay: Growth inhibition of human SU-DHL-4 cells at 0.33 uM incubated for 3 days in presence of 0.003 uM acalabrutinib relative to control; conditions: SU-DHL-4, 72 h, time 3 day, read-out: GI
OCI-Ly10 [12] = assay: Growth inhibition of human OCILY10 cells at 10 uM incubated for 3 days in presence of 0.017 uM acalabrutinib relative to control; conditions: OCI-Ly10, 72 h, time 3 day, read-out: GI
OCI-Ly10 [13] = assay: Growth inhibition of human OCILY10 cells at 0.33 uM incubated for 3 days in presence of 0.003 uM acalabrutinib relative to control; conditions: OCI-Ly10, 72 h, time 3 day, read-out: GI
SUD4 [14] = assay: Growth inhibition of human SU-DHL-4 cells at 0.33 uM incubated for 3 days in presence of 0.017 uM acalabrutinib relative to control; conditions: SU-DHL-4, 72 h, time 3 day, read-out: GI
OCI-Ly10 [15] = assay: Growth inhibition of human OCILY10 cells at 3.3 uM incubated for 3 days in presence of 0.17 uM acalabrutinib relative to control; conditions: OCI-Ly10, 72 h, time 3 day, read-out: GI
SUD4 [16] = assay: Growth inhibition of human SU-DHL-4 cells at 0.33 uM incubated for 3 days in presence of 0.33 uM acalabrutinib relative to control; conditions: SU-DHL-4, 72 h, time 3 day, read-out: GI
SUD4 [17] = assay: Growth inhibition of human SU-DHL-4 cells at 0.17 uM incubated for 3 days in presence of 0.017 uM acalabrutinib relative to control; conditions: SU-DHL-4, 72 h, time 3 day, read-out: GI
SUD4 [18] = assay: Growth inhibition of human SU-DHL-4 cells at 1.7 uM incubated for 3 days in presence of 0.003 uM acalabrutinib relative to control; conditions: SU-DHL-4, 72 h, time 3 day, read-out: GI
OCI-Ly10 [19] = assay: Growth inhibition of human OCILY10 cells at 1.7 uM incubated for 3 days in presence of 0.17 uM acalabrutinib relative to control; conditions: OCI-Ly10, 72 h, time 3 day, read-out: GI
SUD4 [20] = assay: Growth inhibition of human SU-DHL-4 cells at 10 uM incubated for 3 days in presence of 0.033 uM acalabrutinib relative to control; conditions: SU-DHL-4, 72 h, time 3 day, read-out: GI
OCI-Ly10 [21] = assay: Growth inhibition of human OCILY10 cells at 0.33 uM incubated for 3 days in presence of 0.17 uM acalabrutinib relative to control; conditions: OCI-Ly10, 72 h, time 3 day, read-out: GI
OCI-Ly10 [22] = assay: Growth inhibition of human OCILY10 cells at 1.7 uM incubated for 3 days in presence of 0.003 uM acalabrutinib relative to control; conditions: OCI-Ly10, 72 h, time 3 day, read-out: GI
OCI-Ly10 [23] = assay: Growth inhibition of human OCILY10 cells at 10 uM incubated for 3 days in presence of 0.17 uM acalabrutinib relative to control; conditions: OCI-Ly10, 72 h, time 3 day, read-out: GI
OCI-Ly10 [24] = assay: Growth inhibition of human OCILY10 cells at 0.33 uM incubated for 3 days in presence of 0.33 uM acalabrutinib relative to control; conditions: OCI-Ly10, 72 h, time 3 day, read-out: GI
SUD4 [25] = assay: Growth inhibition of human SU-DHL-4 cells at 3.3 uM incubated for 3 days in presence of 0.33 uM acalabrutinib relative to control; conditions: SU-DHL-4, 72 h, time 3 day, read-out: GI
SUD4 [26] = assay: Growth inhibition of human SU-DHL-4 cells at 1.7 uM incubated for 3 days in presence of 0.33 uM acalabrutinib relative to control; conditions: SU-DHL-4, 72 h, time 3 day, read-out: GI
OCI-Ly10 [27] = assay: Growth inhibition of human OCILY10 cells at 0.17 uM incubated for 3 days in presence of 0.33 uM acalabrutinib relative to control; conditions: OCI-Ly10, 72 h, time 3 day, read-out: GI
SUD4 [28] = assay: Growth inhibition of human SU-DHL-4 cells at 1.7 uM incubated for 3 days in presence of 0.017 uM acalabrutinib relative to control; conditions: SU-DHL-4, 72 h, time 3 day, read-out: GI
SUD4 [29] = assay: Growth inhibition of human SU-DHL-4 cells at 0.17 uM incubated for 3 days in presence of 0.003 uM acalabrutinib relative to control; conditions: SU-DHL-4, 72 h, time 3 day, read-out: GI
OCI-Ly10 [30] = assay: Growth inhibition of human OCILY10 cells at 0.17 uM incubated for 3 days in presence of 0.033 uM acalabrutinib relative to control; conditions: OCI-Ly10, 72 h, time 3 day, read-out: GI
SUD4 [31] = assay: Growth inhibition of human SU-DHL-4 cells at 0.17 uM incubated for 3 days in presence of 0.033 uM acalabrutinib relative to control; conditions: SU-DHL-4, 72 h, time 3 day, read-out: GI
SUD4 [32] = assay: Growth inhibition of human SU-DHL-4 cells at 0.33 uM incubated for 3 days in presence of 0.17 uM acalabrutinib relative to control; conditions: SU-DHL-4, 72 h, time 3 day, read-out: GI
SUD4 [33] = assay: Growth inhibition of human SU-DHL-4 cells at 3.3 uM incubated for 3 days in presence of 0.17 uM acalabrutinib relative to control; conditions: SU-DHL-4, 72 h, time 3 day, read-out: GI
SUD4 [34] = assay: Growth inhibition of human SU-DHL-4 cells at 10 uM incubated for 3 days in presence of 0.017 uM acalabrutinib relative to control; conditions: SU-DHL-4, 72 h, time 3 day, read-out: GI
OCI-Ly10 [35] = assay: Growth inhibition of human OCILY10 cells at 3.3 uM incubated for 3 days in presence of 0.33 uM acalabrutinib relative to control; conditions: OCI-Ly10, 72 h, time 3 day, read-out: GI
OCI-Ly10 [36] = assay: Growth inhibition of human OCILY10 cells at 1.7 uM incubated for 3 days in presence of 0.033 uM acalabrutinib relative to control; conditions: OCI-Ly10, 72 h, time 3 day, read-out: GI
SUD4 [37] = assay: Growth inhibition of human SU-DHL-4 cells at 10 uM incubated for 3 days in presence of 0.17 uM acalabrutinib relative to control; conditions: SU-DHL-4, 72 h, time 3 day, read-out: GI
OCI-Ly10 [38] = assay: Growth inhibition of human OCILY10 cells at 0.17 uM incubated for 3 days in presence of 0.003 uM acalabrutinib relative to control; conditions: OCI-Ly10, 72 h, time 3 day, read-out: GI
SUD4 [39] = assay: Growth inhibition of human SU-DHL-4 cells at 10 uM incubated for 3 days in presence of 0.003 uM acalabrutinib relative to control; conditions: SU-DHL-4, 72 h, time 3 day, read-out: GI
OCI-Ly10 [40] = assay: Growth inhibition of human OCILY10 cells at 10 uM incubated for 3 days in presence of 0.033 uM acalabrutinib relative to control; conditions: OCI-Ly10, 72 h, time 3 day, read-out: GI
SUD4 [41] = assay: Growth inhibition of human SU-DHL-4 cells at 1.7 uM incubated for 3 days in presence of 0.033 uM acalabrutinib relative to control; conditions: SU-DHL-4, 72 h, time 3 day, read-out: GI

CC[C@@H]1[C@H](F)C(=O)N[C@@H]1COc1nccc2cc(C(N)=O)c(OC)cc12 [ZIMLOVISERTIB]
inhibition of growth at 0.33 µM (OCI-Ly10 [1]): 142% | inhibition of growth at 3.3 µM (OCI-Ly10 [2]): 139% | inhibition of growth at 3.3 µM (OCI-Ly10 [3]): 36% | inhibition of growth at 0.17 µM (OCI-Ly10 [4]): 171% | inhibition of growth at 0.17 µM (OCI-Ly10 [5]): 93% | inhibition of growth at 10 µM (OCI-Ly10 [6]): 80% | inhibition of growth at 0.33 µM (OCI-Ly10 [7]): 92% | inhibition of growth at 3.3 µM (SUD4 [8]): 2% | inhibition of growth at 0.17 µM (SUD4 [9]): 2% | inhibition of growth at 10 µM (SUD4 [10]): 7% | inhibition of growth at 0.33 µM (SUD4 [11]): 1% | inhibition of growth at 10 µM (OCI-Ly10 [12]): 140% | inhibition of growth at 0.33 µM (OCI-Ly10 [13]): 21% | inhibition of growth at 0.33 µM (SUD4 [14]): 1% | inhibition of growth at 3.3 µM (OCI-Ly10 [15]): 170% | inhibition of growth at 0.33 µM (SUD4 [16]): 6% | inhibition of growth at 0.17 µM (SUD4 [17]): 1% | inhibition of growth at 1.7 µM (SUD4 [18]): 2% | inhibition of growth at 1.7 µM (OCI-Ly10 [19]): 170% | inhibition of growth at 10 µM (SUD4 [20]): 2% | inhibition of growth at 0.33 µM (OCI-Ly10 [21]): 171% | inhibition of growth at 1.7 µM (OCI-Ly10 [22]): 26% | inhibition of growth at 10 µM (OCI-Ly10 [23]): 178% | inhibition of growth at 0.33 µM (OCI-Ly10 [24]): 172% | inhibition of growth at 3.3 µM (SUD4 [25]): 6% | inhibition of growth at 1.7 µM (SUD4 [26]): 6% | inhibition of growth at 0.17 µM (OCI-Ly10 [27]): 171% | inhibition of growth at 1.7 µM (SUD4 [28]): 2% | inhibition of growth at 0.17 µM (SUD4 [29]): 1% | inhibition of growth at 0.17 µM (OCI-Ly10 [30]): 142% | inhibition of growth at 0.17 µM (SUD4 [31]): 1% | inhibition of growth at 0.33 µM (SUD4 [32]): 2% | inhibition of growth at 3.3 µM (SUD4 [33]): 3% | inhibition of growth at 10 µM (SUD4 [34]): 3% | inhibition of growth at 3.3 µM (OCI-Ly10 [35]): 170% | inhibition of growth at 1.7 µM (OCI-Ly10 [36]): 139% | inhibition of growth at 10 µM (SUD4 [37]): 3% | inhibition of growth at 0.17 µM (OCI-Ly10 [38]): 22% | inhibition of growth at 10 µM (SUD4 [39]): 2% | inhibition of growth at 10 µM (OCI-Ly10 [40]): 155% | inhibition of growth at 1.7 µM (SUD4 [41]): 1%
